Laboratory results as given in patent US10035759B2, “Method of chromatographic separation” (The Procter & Gamble Company, priority 2015, dated 2018).

Tested on: human TRPM8
Assay: TRPM8 FLIPR assay: intracellular Ca2+ level in HEK-293 cells stably transfected with human TRPM8
Format: cell-based
Settings: dose 30 uM
Protocol: TRPM8 activation was determined by measuring intracellular calcium ion (Ca^2+) level from transfected cells with the TRPM8 receptor gene, as described in CELL CULTURE PROTOCOL EXAMPLE, the results of which are shown in TABLES 2 and 3.
To determine what effect, if any, test compounds had on TRPM8 (SEQ ID NO: 1) activation the protocols listed below were used.
TRPM8 Protocol-FLIPR Assay
To determine whether TRPM8 is activated, the intracellular calcium ion (Ca^2+) level was measured from transfected cells with the TRPM8 receptor sequence (SEQ ID NO: 1). HEK-293 (human embryonic kidney) cells stably transfected with human TRPM8 were grown in 15 ml growth medium (high glucose DMEM (Dulbecco's Modification of Eagle's Medium) supplemented with 10% FBS (fetal bovine serum), 100 ug/ml penicillin/streptomycin, 5 μg/ml blasticindin, and 100 μg/ml zeocin) in a 75 cm^2 flask for 3 days at 37° C. in a mammalian cell culture incubator set at 5% CO2. Cells were detached with addition of 2 ml of trypsin-EDTA buffer (GIBCO® 25200, Invitrogen, Grand Island, N.Y.) for about 2-3 min. Trypsin was inactivated by addition of 8 ml growth medium. Cells were transferred to a 50 ml tube and centrifuged at 850 rpm for 3 minutes to remove medium. After centrifugation, a pellet of cells was formed in the bottom of the tube separating them from the supernatant solution. […] Fluo-4 AM is a fluorescent dye used for quantifying cellular Ca^2+ concentrations in the 100 nM to 1 microM range. […]
The pelleted cells were re-suspended in 10 ml assay buffer and 90 al aliquots (˜50,000 cells) per well delivered to a 96-well assay plate containing 10 al of test compounds (1 mM in assay buffer, […]) or buffer control and incubated at room temperature for 30 minutes. After 30 minutes, a plate was placed into a fluorometric imaging plate reader (FLIPR TETRA from Molecular Devices, Sunnyvale, Calif.) and basal fluorescence recorded (excitation wave length 488 nm and emission wave length 510 nm). Then 20 μl of 180 μM solution of TRPM8 agonist WS5 coolant was added to the assay buffer and the fluorescence signals were automatically recorded by FLIPR. For determining the direct effect of test compounds on TRPM8, fluorescence was measured immediately after addition of each compound (TABLES 2 and 3). Additional discussion of the FLIPR method can be found in Smart et al., Characterization using FLIPR of human vanilloid VR1 receptor pharmacology, European Journal of Pharmacology 417, 51-58 (2001) and Liu et al., Development and validation of a platelet calcium flux assay using a fluorescent imaging plate reader, Analytical Biochemistry 357, 216-224 (2006).

CCOC(=O)CNC(=O)C1CC(C)CCC1C(C)C (stereo not shown) [WS-5, N-ethoxycarbonylmethyl-ρ-menthan-3-carboxamide]
100.0%: 50 sec % of WS5 (50 sec) | 3 min % of WS5 (3 min) | 5 min % of WS5 (5 min) | 10 min % of WS5 (10 min)
